Laboratory results published in the NIST ThermoML archive (doi:10.1016/j.jct.2014.07.018).

Assay: molar heat capacity at constant pressure
Settings: 101.33 kPa, Vacuum adiabatic calorimetry

CCCCn1cc[n+](C)c1.[I-] [1-butyl-3-methylimidazolium iodide]
Settings | molar heat capacity at constant pressure [J/K/mol]
168.81 K, Crystal | 158.7
169.51 K, Crystal | 159.1
170 K, Crystal | 159.4
170 K, Glass | 172.3
170.6 K, Glass | 172.7
170.88 K, Crystal | 159.9
171.57 K, Crystal | 160.3
172.61 K, Glass | 174
172.94 K, Crystal | 161.1
173.64 K, Crystal | 161.5
174.62 K, Glass | 175.4
175.01 K, Crystal | 162.3
175.71 K, Crystal | 162.7
176.63 K, Glass | 176.8
177.07 K, Crystal | 163.5
177.77 K, Crystal | 163.9
178.63 K, Glass | 178.2
179.14 K, Crystal | 164.8
179.83 K, Crystal | 165.2
180 K, Crystal | 165.3
180 K, Glass | 179.1
180.64 K, Glass | 179.6
181.2 K, Crystal | 166.1
181.89 K, Crystal | 166.6
182.64 K, Glass | 181
183.26 K, Crystal | 167.6
183.95 K, Crystal | 168.1
184.64 K, Glass | 182.6
185.31 K, Crystal | 169.1
186 K, Crystal | 169.6
186.65 K, Glass | 184.1
187.36 K, Crystal | 170.6
188.05 K, Crystal | 171.1
188.65 K, Glass | 185.7
189.41 K, Crystal | 171.9
190 K, Crystal | 172.3
190 K, Glass | 186.7
190.1 K, Crystal | 172.4
190.65 K, Glass | 187.2
191.46 K, Crystal | 173.3
192.15 K, Crystal | 173.7
192.65 K, Glass | 188.9
193.51 K, Crystal | 174.5
194.2 K, Crystal | 174.9
194.65 K, Glass | 191
195.56 K, Crystal | 175.7
196.24 K, Crystal | 176.1
196.66 K, Glass | 193
197.6 K, Crystal | 176.9
198.29 K, Crystal | 177.3
198.66 K, Glass | 195.4
199.65 K, Crystal | 178.1
200 K, Crystal | 178.3
200 K, Glass | 197.5
200.33 K, Crystal | 178.5
200.66 K, Glass | 198.5
201.69 K, Crystal | 179.3
202.37 K, Crystal | 179.8
202.93 K, Glass | 204.1
203.73 K, Crystal | 180.5
204.41 K, Crystal | 180.9
205.45 K, Glass | 214.4
205.77 K, Crystal | 181.8
206.45 K, Crystal | 182.2
207.77 K, Liquid | 247.8
207.8 K, Crystal | 183
208.48 K, Crystal | 183.4
209.84 K, Crystal | 184.3
209.86 K, Liquid | 287.7
210 K, Crystal | 184.3
210 K, Liquid | 287.6
210.52 K, Crystal | 184.6
211.87 K, Crystal | 185.5
212.03 K, Liquid | 285.8
212.55 K, Crystal | 185.9
213.91 K, Crystal | 186.8
214.19 K, Liquid | 286.4
214.58 K, Crystal | 187.2
215.94 K, Crystal | 188.1
216.37 K, Liquid | 286.6
216.61 K, Crystal | 188.6
217.97 K, Crystal | 189.5
218.54 K, Liquid | 287.1
218.63 K, Crystal | 190.1
219.99 K, Crystal | 191
220 K, Crystal | 191
220 K, Liquid | 287.3
220.66 K, Crystal | 191.6
220.72 K, Liquid | 287.4
222.01 K, Crystal | 192.5
222.11 K, Liquid | 287.7
222.67 K, Crystal | 193
222.9 K, Liquid | 287.9
224.03 K, Crystal | 194
224.39 K, Liquid | 288.2
224.69 K, Crystal | 194.5
225.09 K, Liquid | 288.5
226.04 K, Crystal | 195.5
226.56 K, Liquid | 288.5
226.7 K, Crystal | 196
226.71 K, Liquid | 288.5
227.28 K, Liquid | 288.7
227.61 K, Crystal | 196.7
228.05 K, Crystal | 197.1
228.71 K, Crystal | 197.5
228.74 K, Liquid | 289
228.79 K, Liquid | 289
229.47 K, Liquid | 289.3
229.61 K, Crystal | 198.3
230 K, Crystal | 198.5
230 K, Liquid | 289.4
230.06 K, Crystal | 198.5
230.71 K, Crystal | 198.9
230.77 K, Liquid | 289.5
230.93 K, Liquid | 289.5
231.61 K, Crystal | 199.7
231.66 K, Liquid | 289.8
232.06 K, Crystal | 200
232.71 K, Crystal | 200.6
232.76 K, Liquid | 289.8
233.11 K, Liquid | 290.1
233.61 K, Crystal | 201.3
233.72 K, Liquid | 290.1
233.86 K, Liquid | 290.3
234.06 K, Crystal | 201.7
234.71 K, Crystal | 202
234.74 K, Liquid | 290.3
235.3 K, Liquid | 290.6
235.61 K, Crystal | 202.8
235.72 K, Liquid | 290.6
236.05 K, Crystal | 203.2
236.05 K, Liquid | 290.9
236.7 K, Crystal | 203.6
236.72 K, Liquid | 290.9
237.48 K, Liquid | 291.1
237.6 K, Crystal | 204.3
237.71 K, Liquid | 291.1
238.04 K, Crystal | 204.8
238.25 K, Liquid | 291.4
238.69 K, Crystal | 205.3
238.71 K, Liquid | 291.4
239.6 K, Crystal | 205.9
239.67 K, Liquid | 291.7
239.7 K, Liquid | 291.7
240 K, Crystal | 206.3
240 K, Liquid | 291.7
240.03 K, Crystal | 206.3
240.46 K, Liquid | 291.9
240.67 K, Crystal | 206.7
240.69 K, Liquid | 291.9
241.59 K, Crystal | 207.5
241.7 K, Liquid | 292.2
241.85 K, Liquid | 292.2
242.01 K, Crystal | 208
242.65 K, Crystal | 208.4
242.68 K, Liquid | 292.5
243.58 K, Crystal | 209.1
243.69 K, Liquid | 292.7
243.99 K, Crystal | 209.6
244.04 K, Liquid | 292.7
244.63 K, Crystal | 210
244.67 K, Liquid | 293
245.57 K, Crystal | 210.8
245.96 K, Crystal | 211.2
246.6 K, Crystal | 211.6
247.55 K, Crystal | 212.5
247.93 K, Crystal | 212.9
248.56 K, Crystal | 213.4
249.54 K, Crystal | 214.3
249.7 K, Liquid | 294.3
250 K, Crystal | 214.6
250 K, Liquid | 294.4
250.52 K, Crystal | 215.1
251.69 K, Liquid | 294.9
252.54 K, Crystal | 217.2
253.58 K, Liquid | 295.4
254.59 K, Crystal | 219.4
255.48 K, Liquid | 295.9
256.64 K, Crystal | 221.7
257.37 K, Liquid | 296.5
258.69 K, Crystal | 224.2
259.26 K, Liquid | 297.3
260 K, Crystal | 223.4
260 K, Liquid | 297.4
260.73 K, Crystal | 227
261.15 K, Liquid | 297.8
262.75 K, Crystal | 230.3
263.05 K, Liquid | 298.3
264.77 K, Crystal | 234
264.94 K, Liquid | 298.9
266.78 K, Crystal | 238.1
266.84 K, Liquid | 299.7
267.43 K, Liquid | 299.7
268.74 K, Liquid | 300.2
268.77 K, Crystal | 243.1
269.42 K, Liquid | 300.5
270 K, Crystal | 232.6
270 K, Liquid | 300.6
270.64 K, Liquid | 300.7
270.74 K, Crystal | 249
271.32 K, Liquid | 301
272.7 K, Crystal | 256.2
273.22 K, Liquid | 301.5
274.63 K, Crystal | 266.1
275.12 K, Liquid | 302.3
276.52 K, Crystal | 280.2
277.02 K, Liquid | 302.9
278.36 K, Crystal | 295.7
278.92 K, Liquid | 303.4
280 K, Crystal | 242.3
280 K, Liquid | 303.8
280.15 K, Crystal | 317.2
280.82 K, Liquid | 303.9
281.86 K, Crystal | 349.7
282.72 K, Liquid | 304.7
283.46 K, Crystal | 398.1
284.62 K, Liquid | 305.2
284.92 K, Crystal | 473.4
286.2 K, Crystal | 587.3
286.52 K, Liquid | 306
287.29 K, Crystal | 773.4
288.17 K, Crystal | 1041
288.42 K, Liquid | 306.6
288.86 K, Crystal | 1421
289.4 K, Crystal | 1917
290 K, Crystal | 252.5
290 K, Liquid | 307.1
290.32 K, Liquid | 307.1
291.92 K, Crystal | 254.5
291.92 K, Liquid | 307.8
292.23 K, Liquid | 307.9
293.86 K, Liquid | 308.4
294.13 K, Liquid | 308.4
294.32 K, Liquid | 308.7
295.68 K, Liquid | 309
296.03 K, Liquid | 309.2
296.1 K, Liquid | 309.2
297.5 K, Liquid | 309.8
297.89 K, Liquid | 309.8
297.93 K, Liquid | 309.8
298.15 K, Liquid | 309.9
299.84 K, Liquid | 310.6
300 K, Liquid | 310.5
301.74 K, Liquid | 311.1
303.65 K, Liquid | 311.9
305.55 K, Liquid | 312.4
307.45 K, Liquid | 313.2
309.36 K, Liquid | 313.8
310 K, Liquid | 314.1
311.26 K, Liquid | 314.6
313.17 K, Liquid | 315.1
315.07 K, Liquid | 315.9
316.98 K, Liquid | 316.7
318.89 K, Liquid | 317.2
320 K, Liquid | 317.6
320.79 K, Liquid | 318
322.7 K, Liquid | 318.6
324.6 K, Liquid | 319.4
326.51 K, Liquid | 320.1
328.41 K, Liquid | 320.7
330 K, Liquid | 321.3
330.32 K, Liquid | 321.5
332.22 K, Liquid | 322
334.13 K, Liquid | 322.8
336.03 K, Liquid | 323.6
337.93 K, Liquid | 324.4
339.84 K, Liquid | 324.9
340 K, Liquid | 325.1
341.74 K, Liquid | 325.7
343.65 K, Liquid | 326.5
345.55 K, Liquid | 327.3
347.47 K, Liquid | 327.9
349.37 K, Liquid | 328.7
350 K, Liquid | 328.9
351.28 K, Liquid | 329.5
353.19 K, Liquid | 330.3
355.09 K, Liquid | 330.8
357 K, Liquid | 331.6
358.91 K, Liquid | 332.4
360 K, Liquid | 332.9
360.81 K, Liquid | 333.2
362.72 K, Liquid | 334
364.62 K, Liquid | 334.8
366.52 K, Liquid | 335.3
368.43 K, Liquid | 336.4
370 K, Liquid | 336.9
